# Counter-ions that a name gives are not always drawn.
# Molecular target: T1, Tau P301L (Homo sapiens, UniProt P10636, P618L)
# T1 construct: expressed in transfected cells
# Assay: In vitro tau degradation assay in CHOK1 Tau P301L cells (sarkosyl insoluble tau, WES)
# Assay type: cell-based
# Settings: CHO-K1; remaining tau protein in sarkosyl insoluble pellet; CHOK1 Tau P301L cells treated 48 hours with test compound at 1 μM, doxycycline removed for the last 24 hours; relative to DMSO doxycycline control; read-out: Tau Protein Degradation effect at 1 μM
# Procedure, shortened: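 Sarkosyl-insoluble pellet tau, measured by WES capillary immunoassay (Tau1 antibody), was scored against DMSO doxycycline control as ≤50% or >50% remaining. Cells were CHOK1 clone D1 expressing Tau P301L under doxycycline (1 μg/ml), given 1 μM compound for 48 h with doxycycline withdrawn during the last 24 h.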
# T1 sequence (P10636 1-441 isoform P10636-8 P301L): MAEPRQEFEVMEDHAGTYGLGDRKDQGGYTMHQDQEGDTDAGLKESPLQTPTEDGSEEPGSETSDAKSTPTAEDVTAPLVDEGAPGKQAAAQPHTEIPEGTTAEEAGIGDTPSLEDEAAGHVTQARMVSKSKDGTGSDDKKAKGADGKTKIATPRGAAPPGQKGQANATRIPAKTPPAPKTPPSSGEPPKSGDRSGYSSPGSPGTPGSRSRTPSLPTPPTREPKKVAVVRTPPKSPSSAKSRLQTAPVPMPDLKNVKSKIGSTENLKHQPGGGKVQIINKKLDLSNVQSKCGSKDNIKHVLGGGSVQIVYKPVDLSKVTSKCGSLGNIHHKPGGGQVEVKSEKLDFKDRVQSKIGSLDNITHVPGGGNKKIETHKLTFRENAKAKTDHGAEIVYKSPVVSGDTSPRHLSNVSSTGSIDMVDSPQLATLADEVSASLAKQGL
row,remaining activity at 1 µM [%],SMILES
1,< 50,"Cc1ccc(-n2ccc3cc(N4CCC(CCN5CCN(c6ccc7c(c6)C(=O)N(C6CCC(=O)NC6=O)C7=O)CC5)CC4)ncc32)nc1 (centres unmarked) [Compound 555, 2-(2,6-dioxopiperidin-3-yl)-5-(4-(2-(1-(1-(5-methylpyridin-2-yl)-1H-pyrrolo[2,3-c]pyridin-5-yl)piperidin-4-yl)ethyl)piperazin-1-yl)isoindoline-1,3-dione]"
2,< 50,"Cc1ccc(-c2cn3ccc(N4CCC(CCN5CCN(c6ccc7c(c6)C(=O)N(C6CCC(=O)NC6=O)C7=O)CC5)CC4)cc3n2)cc1 (centres unmarked) [Compound 558, 2-(2,6-dioxopiperidin-3-yl)-5-(4-(2-(1-(2-(p-tolyl)imidazo[1,2-a]pyridin-7-yl)piperidin-4-yl)ethyl)piperazin-1-yl)isoindoline-1,3-dione]"
3,< 50,"Cc1cc2c(cn1)c1ccc(-c3cnc(N4CCC(CCN5CCN(c6ccc7c(c6)C(=O)N(C6CCC(=O)NC6=O)C7=O)CC5)CC4)c(F)c3)cc1n2C (centres unmarked) [Compound 561, 5-(4-(2-(1-(5-(3,5-dimethyl-5H-pyrido[4,3-b]indol-7-yl)-3-fluoropyridin-2-yl)piperidin-4-yl)ethyl)piperazin-1-yl)-2-(2,6-dioxopiperidin-3-yl)isoindoline-1,3-dione]"
4,< 50,"O=C1CCC(N2C(=O)c3ccc(N4CCN(CC#CC5CCN(c6ccc7c8cnccc8n(C(F)F)c7c6)CC5)CC4)cc3C2=O)C(=O)N1 (centres unmarked) [Compound 565, formate]"
5,< 50,"O=C1CCC(N2C(=O)c3ccc(N4CCN(CC(F)(F)C5CCN(c6ccc(-c7ccc8c(c7)[nH]c7ccncc78)cn6)CC5)CC4)cc3C2=O)C(=O)N1 (centres unmarked) [Compound 569, 5-(4-(2-(1-(5-(5H-pyrido[4,3-b]indol-7-yl)pyridin-2-yl)piperidin-4-yl)-2,2-difluoroethyl)piperazin-1-yl)-2-(2,6-dioxopiperidin-3-yl)isoindoline-1,3-dione]"
6,< 50,"O=C1CCC(N2C(=O)c3ccc(N4CCN(CC#CC5CCN(c6ncc(-c7ccc8c9cnccc9n(C(F)F)c8c7)cc6F)CC5)CC4)cc3C2=O)C(=O)N1 (centres unmarked) [Compound 574, 5-(4-(3-(1-(5-(5-(difluoromethyl)-5H-pyrido[4,3-b]indol-7-yl)-3-fluoropyridin-2-yl)piperidin-4-yl)prop-2-yn-1-yl)piperazin-1-yl)-2-(2,6-dioxopiperidin-3-yl)isoindoline-1,3-dione]"
7,< 50,"O=C1CCC(N2C(=O)c3ccc(N4CCN(CCC5CCN(c6cc(Nc7ccc8ncccc8n7)ccn6)CC5)CC4)cc3C2=O)C(=O)N1 (centres unmarked) [Compound 583, 2-(2,6-dioxo-3-piperidyl)-5-[4-[2-[1-[4-(1,5-naphthyridin-2-ylamino)-2-pyridyl]-4-piperidyl]ethyl]piperazin-1-yl]isoindoline-1,3-dione]"
8,< 50,"Cc1cc(Nc2ccc3nc(N4CCC(CCN5CCN(c6ccc7c(c6)C(=O)N(C6CCC(=O)NC6=O)C7=O)CC5)CC4)ccc3n2)ccn1 (centres unmarked) [Compound 584, 2-(2,6-dioxopiperidin-3-yl)-5-(4-(2-(1-(6-((2-methylpyridin-4-yl)amino)-1,5-naphthyridin-2-yl)piperidin-4-yl)ethyl)piperazin-1-yl)isoindoline-1,3-dione]"
9,< 50,"O=C1CCC(N2C(=O)c3ccc(N4CCN(C(=O)CC5CCN(c6ncc(-c7ccc8c9cnccc9n(C(F)F)c8c7)cc6F)CC5)CC4)cc3C2=O)C(=O)N1 (centres unmarked) [Compound 592, 5-(4-(2-(1-(5-(5-(difluoromethyl)-5H-pyrido[4,3-b]indol-7-yl)-3-fluoropyridin-2-yl)piperidin-4-yl)acetyl)piperazin-1-yl)-2-(2,6-dioxopiperidin-3-yl)isoindoline-1,3-dione]"

# Second part, the compound before the results:
row,SMILES,remaining activity at 1 µM [%]
1,"O=C1CCC(N2Cc3cc(N4CCN(CCC5CCN(c6ncc(-c7ccc8c9cnccc9n(C(F)F)c8c7)cc6C(F)(F)F)CC5)CC4)ccc3C2=O)C(=O)N1 (centres unmarked) [Compound 543, 3-(5-(4-(2-(1-(5-(5-(difluoromethyl)-5H-pyrido[4,3-b]indol-7-yl)-3-(trifluoromethyl)pyridin-2-yl)piperidin-4-yl)ethyl)piperazin-1-yl)-1-oxoisoindolin-2-yl)piperidine-2,6-dione]",< 50
2,"O=C1CCC(N2C(=O)c3ccc(C#CCN4CCN(CCC5CCN(c6ncc(-c7ccc8c9cnccc9n(C(F)F)c8c7)cc6F)CC5)CC4)cc3C2=O)C(=O)N1 (centres unmarked) [Compound 566, 5-(3-(4-(2-(1-(5-(5-(difluoromethyl)-5H-pyrido[4,3-b]indol-7-yl)-3-fluoropyridin-2-yl)piperidin-4-yl)ethyl)piperazin-1-yl)prop-1-yn-1-yl)-2-(2,6-dioxopiperidin-3-yl)isoindoline-1,3-dione]",< 50
3,"O=C1CCC(N2C(=O)c3ccc(OCCCN4CCC5(CC4)CN(c4ncc(-c6ccc7c8cnccc8n(C(F)F)c7c6)cc4F)C5)cc3C2=O)C(=O)N1 (centres unmarked) [Compound 568, 5-(3-(2-(5-(5-(difluoromethyl)-5H-pyrido[4,3-b]indol-7-yl)-3-fluoropyridin-2-yl)-2,7-diazaspiro[3.5]nonan-7-yl)propoxy)-2-(2,6-dioxopiperidin-3-yl)isoindoline-1,3-dione]",< 50
4,"O=C1CCC(N2C(=O)c3ccc(N4CCN(CCCN5CCOC6(CCN(c7ccc8c9cnccc9n(C(F)F)c8c7)CC6)C5)CC4)cc3C2=O)C(=O)N1 (centres unmarked) [Compound 575, 5-(4-(3-(9-(5-(difluoromethyl)-5H-pyrido[4,3-b]indol-7-yl)-1-oxa-4,9-diazaspiro[5.5]undecan-4-yl)propyl)piperazin-1-yl)-2-(2,6-dioxopiperidin-3-yl)isoindoline-1,3-dione]",< 50
5,"O=C1CCC(N2C(=O)c3ccc(OCCC4CCN(C[C@H]5C[C@H](Oc6cc(Nc7ccc8ncccc8n7)ccn6)C5)CC4)cc3C2=O)C(=O)N1 (some centres unmarked) [Compound 577, 5-(2-(1-(((1r,3r)-3-((4-((1,5-napthyridin-2-yl)amino)pyridin-2-yl)oxy)cyclobutyl)methyl)piperidin-4-yl)ethoxy)-2-(2,6-dioxopiperidin-3-yl)isoindoline-1,3-dione]",> 50
6,"CC(C)N(CC1CCN(c2ncc(-c3ccc4c5cnccc5n(C(F)F)c4c3)cc2F)CC1)[C@H]1C[C@H](Oc2ccc3c(c2)C(=O)N(C2CCC(=O)NC2=O)C3=O)C1 (some centres unmarked) [Compound 581, 5-((1r,3r)-3-(((1-(5-(5-(difluoromethyl)-5H-pyrido[4,3-b]indol-7-yl)-3-fluoropyridin-2-yl)piperidin-4-yl)methyl)(isopropyl)amino)cyclobutoxy)-2-(2,6-dioxopiperidin-3-yl)isoindoline-1,3-dione]",< 50
7,"O=C1CCC(N2C(=O)c3ccc(C#CCN4CCN(CCC5CCN(c6ccc7c8cnccc8n(C(F)F)c7c6)CC5)CC4)cc3C2=O)C(=O)N1 (centres unmarked) [Compound 586, 5-(3-(4-(2-(1-(5-(difluoromethyl)-5H-pyrido[4,3-b]indol-7-yl)piperidin-4-yl)ethyl)piperazin-1-yl)prop-1-yn-1-yl)-2-(2,6-dioxopiperidin-3-yl)isoindoline-1,3-dione]",< 50
8,O=C1CCC(N2C(=O)c3ccc(N4CCN(CCC5CCN(C6CCN(c7ccc8c9cnccc9n(C(F)F)c8c7)CC6)CC5)CC4)cc3C2=O)C(=O)N1 (centres unmarked) [Compound 593],< 50

# Reference: patent US11912699B2, “Tau-protein targeting compounds and associated” (Arvinas Operations, Inc., priority 2019, dated 2024)
